Test results: a melting point compilation (Tetko et al.; mined from patent text by program, amines drawn as free bases though some values may be those of a salt)

melting point | SMILES
143 to 145 °C | CCOC(=O)c1cc2cc(-c3ccccc3OC)ccc2nn1
234 to 235 °C | COC(=O)C(C)(C)c1ccc(C(=O)Nc2cn3cc(I)ccc3n2)cc1
147 to 152 °C | CN(c1ccccc1)c1nc(N)nc2nc[nH]c12
139 °C | Cc1ccc2nc(-c3ccccc3)cc(OCc3ccccc3)c2c1
142 to 145 °C | O=c1ccccn1C(c1ccccc1)c1ccccc1
125 to 127 °C | Cc1nnc(-c2cc3c(OCCCN4CCC(c5ccc6c(c5)OCO6)CC4)cccc3o2)o1
155 to 156 °C | O=C1C(CC23CC(c4ccccc42)c2ccccc23)OCCN1Cc1ccccc1 (stereo not drawn)
157 °C | CCCc1c(CSc2ncccc2OCC(=O)O)ccc(C(C)=O)c1O
215 to 220 °C | COc1cc2ncc(C#N)c(Nc3ccc(F)c(Cl)c3)c2cc1NC(=O)C=CCN1CCC(O)C1 (stereo not drawn)
355 to 358 °C | NC(=O)c1cc2c3ccccc3[nH]c(=O)n2n1
185 °C | CC(=O)OC1CSC(Oc2cc(F)cnc2Cl)C(OC(C)=O)C1OC(C)=O (stereo not drawn)
129 to 131 °C | O=C(O)c1cn(-c2ccc(F)cc2)c(-c2ccc(N=Cc3ccc([N+](=O)[O-])o3)cc2)cc1=O
164 to 165 °C | CC(C)c1nc(CN2C(=O)C3(COc4cc5c(cc43)OCO5)c3c(-c4ccc(N(C)C)nc4)cccc32)cs1 (stereo not drawn)
158 to 160 °C | CCOC(=O)c1nc(N)sc1C(=O)C(C)Br (stereo not drawn)
62 to 63 °C | CCCc1cc2cc(OCC(=O)OCC)c(Cl)c(Cl)c2s1
89 to 91 °C | CC(C)C(=O)NCCNCC(O)COc1ccccc1 (single isomer, unassigned; (-))
79 to 83 °C | Cn1nc(-c2c(Cl)cncc2Cl)nc1C1(C)CC1(Cl)Cl (stereo not drawn)
222 to 224 °C | COCc1nnc(-c2cccnc2)n1-c1c(Cl)c(Cl)cc2[nH]c(=O)c(=O)[nH]c12
210 to 211 °C | CC(C(N)=O)c1ccc2c(c1)oc1ccc(Cl)cc12 (stereo not drawn)
71 to 73 °C | Cc1ccc(-c2cc(C)ccc2C=CC#Cc2ccc(C(=O)O)cc2)cc1
145 to 147 °C | COc1cc(C)ccc1S(=O)(=O)NC(=O)C(c1cc(OC)c2c(c1)OCO2)c1cn(C)c2cc(CO)ccc12 (stereo not drawn)
232 °C | S=c1cc(-c2nc[nH]n2)oc2ccccc12
172 to 174 °C | COC(=O)C1=C(C)N=C(OC)N(C(=O)Oc2ccc([N+](=O)[O-])cc2)C1c1ccc(F)c(F)c1 (stereo not drawn)

melting point | SMILES
271 to 273 °C | c1ccc2c(c1)ccc1c(-c3ccncc3)[nH]nc12
213 to 215 °C | N#Cc1ccc2c(c1-c1c(C#N)ccc3c1OCO3)OCO2
135 to 138 °C | CC(C)(C)NS(=O)(=O)c1c(C(Br)Br)nsc1OCC(F)(F)F
153 to 157 °C | CCCOc1ccccc1CCCOc1ccc2c(c1)C=C(C(=O)O)CCS2(=O)=O
99 to 101 °C | O=P1(c2ccccc2)OCc2ccccc21 (stereo not drawn)
285 to 286 °C | COc1cccc(CNC(=O)c2nc3scc(CNC(=O)c4ccc(C(=O)O)cc4)c3c(=O)[nH]2)c1
46 to 50 °C | COC(=O)COc1ccc(C(=O)C(C)(C)Br)cc1
161 to 162 °C | CN(O)C(=O)NCCCOc1ccc(-c2ccccc2)cc1
66 to 68 °C | OC(CCl)c1ccc(-c2ccc(SC(F)F)cc2)cc1 (stereo not drawn)
130 to 131 °C | CCOc1ccc(S(=O)(=O)N2CCN(C)CC2)cc1C#N
115 to 116 °C | CSc1nccc(Oc2ccc(NC(=O)c3cc(F)cc(OC4CCCC4)c3)c3ccccc23)n1
81 to 83 °C | CCOC(=O)C(=Cc1ccc(OC)c(O)c1)C(=O)OCC
110 to 114 °C | O=C(/C=C/c1ccccc1F)N1CCN(C(=O)c2cc(C(F)(F)F)cc(C(F)(F)F)c2)[C@H](Cc2c[nH]c3ccccc23)C1
156 to 157 °C | COC(=O)c1csc(NC(=O)C(CC2CCCC2)c2ccc(Cl)cc2)n1 (stereo not drawn)
157 to 161 °C | CCOC(=O)c1cn(C2CSC2)c2nc(Cl)c(F)cc2c1=O
104 to 106 °C | CNC(=O)C(C)(C)CCCCC1(CCCCC(C)(C)C(=O)NC)SCCCS1
> 268 °C | Oc1ccc(-c2cnc3cnc(-c4cccc(O)c4)nc3c2)cc1
202 °C | O=C(Nc1ccc(Cl)c(Cl)c1)c1cc(C(F)(F)F)cc([N+](=O)[O-])c1Cl
97.1 to 101 °C | COc1ccccc1-c1cccc(-n2cnc(-c3nc(C)no3)c2)c1
171 to 173 °C | O=C(Nc1ccc(C(F)(F)F)cc1)N1CCC(c2ccccc2)C(c2ccccc2)=N1 (stereo not drawn)
74 to 75 °C | COc1ccc(C2(O)CCCCC2)cn1
> 260 °C | Cc1nc2c([nH]1)C(=O)c1ccccc1C2=O
105 to 107 °C | CCCCCCCNC(=O)Nc1c(F)cc(F)cc1CCc1ccc(CC(C)(C)C)cc1

melting point | SMILES
113 to 115 °C | C[C@@H](c1ccc(-c2[nH]nnc2Cl)cc1)[C@](O)(Cn1cncn1)c1ccc(F)cc1F
94 to 97 °C | CCc1ccccc1OCC(C)NC(=O)C(C#N)C(C)(C)C (stereo not drawn)
124 to 125 °C | N#Cc1cccc(C=Cc2ccc(Cl)c(Cl)c2)n1
56 to 57 °C | CC1([C@H]2CC[C@@H](O)CC2)CC1
58 to 64 °C | CCCCCCCCNC(=O)N1CCC(Nc2ccc(CCNC[C@H](O)COc3ccc(F)cc3)cc2)CC1
106 to 108 °C | COc1ccc(C[C@H](NC(=O)OCc2ccccc2)C(=O)O)cc1
132 to 133 °C | O=c1[nH]c(=O)c2ccccc2o1
168 to 170 °C | CSC(Nc1ccc2c(c1)OCO2)=C(C#N)S(C)(=O)=O
215 °C | COCC(C(=O)O)N(CCN(CC(=O)O)C(COC)C(=O)O)CC(=O)O (stereo not drawn)
98 to 99 °C | CCCCCCCC(=N)NC(=S)Nc1ccc(Cl)cc1
225 to 230 °C | NCCCc1c[nH]c2ccc3c(=O)[nH]ccc3c12
203 to 204 °C | CN1c2ccccc2NC(=S)c2cscc21
136 to 137 °C | CC(C)CN1C(=O)C2CC(c3ccc([N+](=O)[O-])cc3)(C2)C1=O
204 °C | COc1cc(N)c(Cl)cc1C(=O)N[C@H]1CCN(Cc2cnccn2)C[C@H]1OC (relative stereo)
146 to 152 °C | CCCCC(C(=O)OC)(C(=O)OC)c1nc(C)nc2c1c(SC)nn2-c1c(Cl)cc(Cl)cc1Cl
122 to 123 °C | O=C1CCCN1C(=O)Oc1ccc([N+](=O)[O-])cc1
102 to 105 °C | CCCCc1nn(-c2cc(NC(=O)CC)ccc2C(F)(F)F)c(=O)n1Cc1ccc(-c2ccccc2S(=O)(=O)NC(=O)c2ccccc2Cl)cc1
256 to 258 °C | CSC1=CC2=CN(S)NN2C(C)=N1
166 to 168 °C | CC(CC(O)(C(=O)Nc1ccc2c(c1)COC2=O)C(F)(F)F)c1ccccc1 (stereo not drawn)
167 to 169 °C | CC(=O)C1CCC2C3CCC4=CC(=O)C=CC4(C)C3C=CC12C (stereo not drawn)
161 to 162 °C | CC(NC(=O)CC(CNC(=O)OC(C)(C)C)c1ccc(Cl)c(Cl)c1)c1ccccc1 (stereo not drawn)
103 to 105 °C | CCCCc1cnc(C(N)=O)cc1N
66 to 68 °C | COc1cc(C=C2C(=O)CCc3c2ccc2c3OCO2)c([N+](=O)[O-])cc1OC

melting point | SMILES
137 to 138 °C | CC(C)(C)c1cc(CN(c2cccnc2)S(=O)(=O)c2ccc(F)cc2)cc(C(C)(C)C)c1O
208 to 211 °C | CC(=O)OCC1Cc2c(C3=C(c4cn(C)c5ccccc45)C(=O)OC3=O)c3ccccc3n2C1 (stereo not drawn)
120 to 121 °C | OC(COc1ccccc1-c1cc[nH]n1)CN1CCN(c2ccc(Cl)cc2)CC1 (stereo not drawn)
75 to 77 °C | CCCCCCCCCCCCCCCC(=O)Oc1ccc(C(O)C(C)N2CCC(Cc3ccccc3)CC2)cc1 (stereo not drawn)
298 to 301 °C | COc1ccc2cc3c(c(-c4ccc(C)cc4)c2c1)C(=O)NC3=O
147 to 148 °C | Cc1nc2n(CCN3CCOCC3)c3ccccc3n2c1C(=O)c1ccc(Cl)cc1
128 to 129 °C | CNc1ccc(C23CC2C(=O)N(C)C3=O)cc1 (stereo not drawn)
196 °C | NCCN1CCC(Nc2nc3ccccc3n2Cc2ccnc3ccccc23)CC1
95 °C | COC(=O)c1nccnc1NCc1ccncc1
141 to 143 °C | S=C(Cc1ccc2c(c1)CCO2)N1CCOCC1
192 to 195 °C | Cc1ccc2c(c1)S(=O)(=O)N=CN2C1CC1
183 to 184 °C | Cc1ccc(-c2ccc(/C=C/C(=O)O)o2)cc1
228 to 230 °C | COc1cc2nc(N3CCN(C(=O)c4nnc(SC)o4)CC3)nc(N)c2cc1OC
252 °C | Cc1ccccc1-n1cc(C#N)c(=O)[nH]c1=O
191 to 192 °C | COc1ccc(C(=O)Nc2ccccc2NC(=O)c2ccc(OC)c(OC)c2)cc1OC
151 to 152 °C | Nc1ccc(CCC(=O)NC23CC4CC(CC(C4)C2)C3)cc1N
90 to 94 °C | COc1cc2cc(CO)c(CO)c(-c3ccnc(N4CCC(O)c5ccccc54)c3)c2cc1OC (stereo not drawn)
173 to 175 °C | COc1cc2c(cc1OC)[C@@H]1CN(C)CC[C@@H]1N=C2c1ccc(NC(C)=O)cc1 (relative stereo)
> 250 °C | COc1cc2c(Nc3ccc(Cl)cc3F)ncnc2cc1OCCN1CCNC1=O
140 to 142 °C | O=C(c1ccccc1C(F)(F)F)N1CCCN(CC2=Nc3cccc4c(=O)[nH]nc(c34)N2)CC1
86 to 88 °C | CCCCCCC1(C)Nc2ccccc2-c2c([N+](=O)[O-])cnn21 (stereo not drawn)
207 to 209 °C | CCN(CC)CCNC(=O)c1cccc2c(=O)cc(-c3ccc([N+](=O)[O-])cc3)oc12
77 to 80 °C | CC(=O)N[C@H]1C=C[C@@H](CO)C1

SMILES | melting point
COc1ccc(C2=CCN(CCC(O)c3ccc(C#N)cc3)CC2)cc1 (stereo not drawn) | 144 to 145 °C
CC(=O)NCc1cc2n(n1)-c1ccc([N+](=O)[O-])cc1C(c1ccccc1)=NC2 | 208 to 211 °C
N#Cc1ccc(N2C(=O)N(CCCCO)C3(CCCCC3)C2=O)cc1C(F)(F)F | 145 °C
Cc1cc(C)cc(COC2CCC(N)(c3ccccc3)C(OCc3cc(C)cc(C)c3)C2)c1 (stereo not drawn) | 103 to 105 °C
COC(=O)c1cnc(SC)n1C(c1ccccc1)c1ccccc1 | 118 °C
CN(C)C1(c2ccccc2)CCC(C(=O)c2cc3ccccc3n2C)(N2CCCC2)CC1 (stereo not drawn) | 212 to 218 °C
